# “Also recorded” adds a separate entry of the source. Like-named read-outs stand apart in the source and are kept apart here.
# Key:
# [1] = test system: OPCs; test: qRT-PCR of MBP and MOG expression in compound treated OPCs; format: cell-based, rat; details: EC90 concentrations, 6 days
# Description: FIG. 2A-C. […] (A) Western blot analysis of OPCs treated with compounds at EC90 concentrations for 6 days. Total protein was isolated from cell pellets and probed for myelin basic protein (MBP) and myelin oligodendrocyte glycoprotein (MOG) using specific antibodies. (B-C) Quantitative RT-PCR (qRT-PCR) analysis of OPCs treated with compounds at EC90 concentrations for 6 days. Total RNA was isolated from cell pellets and reverse transcribed. MBP and MOG expression was quantified using specific probes and Taqman-based qRT-PCR. Expression was normalized to the internal controls β-actin and GAPDH. Fold change in gene expression over DMSO treated control cells is plotted for MBP (B) and MOG (C).
# [2] = test system: OPCs; test: Immunofluorescence analysis of mature oligodendrocyte markers (MBP, MOG, CNP, GalC, O1, O4); format: cell-based, rat; details: OPCs treated 6 days
# Description: FIG. 3. Immunofluorescence analysis of compound treated OPCs using mature oligodendrocyte specific markers. Immunofluorescence staining using specific antibodies for MBP, MOG, and 2′,3′-cyclic nucleotide 3′ phosphodiesterase (CNP). Nuclei were identified using DAPI.
# FIG. 4. Immunofluorescence analysis of compound treated OPCs using mature oligodendrocyte specific markers. Immunofluorescence staining using specific antibodies for galactocereberoside (GalC), oligodendrocyte marker O1 (O1) and oligodendrocyte marker O4 (O4). Nuclei were identified using DAPI.
# FIG. 14. Compound treatment induces the differentiation of OPCs to mature oligodendrocytes. […] Cells were fixed and immunostained for MBP, MOG, CNP, GalC, O1, or O4.
# Immunofluorescence was also used to confirm that the hits were able to induce oligodendrocyte maturation.
# [3] = test system: PLP induced EAE mice; details: for clinical severity versus vehicle, prophylactic mode: 10 mg/kg i.p. daily from the day of PLP injection; for dose dependence of clinical EAE scores: various doses i.p. (FTY720 1, 0.1, 0.01 mg/kg; interferon-β 10,000, 3000, 1000 U per mouse)
# Method: (A-E) SJL mice were immunized with proteolipid peptide (PLP) and pertussis toxin and monitored daily with scoring on the standard clinical EAE scale (0-5). Compounds were administered daily for the duration of the study in saline at 10 mg/kg via intra-peritoneal injection (0.1 ml), starting on the day of the appearance of clinical EAE symptoms (day 10). […] Mean clinical EAE score and standard error of mean (SEM) are shown for each study group.
# FIG. 25. […] EAE was induced in mice using PLP and pertussis toxin. […] Prophylactic dosing is defined as administration of compound commenced on the day of PLP injection. Error bars indicate standard deviation of the mean within each group of 8 mice.
# (A-F) EAE was induced in mice using PLP and pertussis toxin. […] Error bars indicate standard deviation of the mean within each group of 8 mice.
# (A-F) EAE was induced in mice by injecting PLP in complete Freund's adjuvant (CFA) and pertussis toxin, and the animals were scored daily for clinical severity of disease on a scale of 0-5. […] Error bars indicate standard deviation of the mean within each group of 8-10 mice.
# 10 week old SJL mice were immunized with PLP emulsion and pertusis toxin to induce EAE. […] Compounds were administered daily via intraperitoneal injection of 100 ul in sterile saline at 10 mg/kg alone or in combination with mycophenolate motefil in sterile saline at pH 5 at 20 mg/kg. Compound administration was initiated at disease onset (day 10) while mycophenolate motefil administration was initiated on Day 14. The mice were scored daily on a standard EAE scale of 0-5.
# This model is most commonly used to evaluate the potential efficacy of immunomodulatory agents, but can also be used to determine the effectiveness of promyelinating agents that function by enhancing OPC differentiation (M. Fernandez et al., Proc Natl Acad Sci U.S.A, 101, 16363 (2004); X. Lee et al., J Neurosci, 27, 220 (2007); reviewed in R. J. Franklin, C. Ffrench-Constant, Nat Rev Neurosci, 9, 839 (2008)). […] We next evaluated efficacy when the drug is dosed therapeutically, by starting daily injections at the first sign of disease onset.
# For the treatment of MS, an OPC differentiation inducing drug would most likely be introduced clinically as part of a combination therapy with an immunosuppressive drug. […] The former reduces T-cell proliferation and alters cytokine expression (A. Noronha, A. Toscas, M. A. Jensen, J Neuroimmunol, 46, 145 (1993); A. Noronha, A. Toscas, M. A. Jensen, Ann Neurol, 27, 207 (1990)), while the latter is an S1P agonist that regulates T-cell trafficking (V. Brinkmann et al., J Biol Chem, 277, 21453 (2002); V. Brinkmann et al., Nat Rev Drug Discov, 9, 883 (2010)).
# [4] = test system: muscarinic receptor; test: Carbachol co-treatment in compound induced OPC differentiation (MBP staining); format: cell-based, rat; details: compounds at EC90 (benztropine 2.3 uM), serial dilutions of carbachol, 6 days
# Method: Following 6 days of treatment, cells were fixed and stained for MBP. Plates were imaged using the OPERA high content screening system and MBP staining was quantified as described. […] OPCs were plated in 384-well plates at 5000 cells per well in media containing basal PDGF-αα. Cells were equilibrated with Ca^2+ sensitive Fluo-3AM® dye in HBSS for 30 min. […] Ca^2+ influx was immediately measured using the FLIPR TETRA® system.
# OPCs express mAChRs, predominantly subtypes M1, M3, and M5 (F. Ragheb et al., J Neurochem, 77, 1396 (2001)). […] Activation of M1 and M3 mAChRs is coupled to downstream signal transduction events through phospholipase C, which results in increased intracellular calcium concentrations (F. Ragheb et al., J Neurochem, 77, 1396 (2001)) (FIG. 23C). M2 and M4 mAChR activation inhibits adenylatecyclase, leading to decreased intracellular cAMP levels (C. C. Felder, FASEB J, 9, 619 (1995); M. Lopez-Ilasaca et al., Science, 275, 394 (1997)). […] Acetylcholine is a known regulator of OPC proliferation and, as such, muscarinic receptor subtypes represent a reasonable class of therapeutic targets for the modulation of OPC proliferation and differentiation (F. De Angelis et al., Dev Neurobiol, (2011)).
Structure (SMILES),induction of MBP expression (qRT-PCR) over DMSO [1],induction of MOG expression (qRT-PCR) over DMSO [1],"markers of mature myelinating oligodendrocytes (MBP, MOG, CNP, GalC, O1, O4) by immunofluorescence [2]",effect on clinical severity scores at 0.1 mg/kg ([3]; 0.1 mg/kg),"clinical severity versus vehicle, prophylactic mode [3]","clinical severity versus vehicle, prophylactic mode ([3]; listed as Benztropine)","mean maximal clinical EAE score in relapse, day 25 ([3]; SJL mice, scale 0-5, compounds 10 mg/kg i.p. daily from day 10, mycophenolate mofetil 20 mg/kg from day 14, mean ± SEM)",most effective dose in decreasing clinical severity scores ([3]; dose response in EAE model) [mg/kg],"general toxicity ([3]; mouse, in vivo, 10 mg/kg)",dose dependence of clinical EAE scores [3],dose dependence of clinical EAE scores ([3]; listed as Benztropine),effect of carbachol on compound induced OPC differentiation [4],effect of carbachol on compound induced OPC differentiation ([4]; listed as benzatropine),recovery time following the acute phase ([3]; 10 mg/kg i.p. daily from day 10),"mean maximal clinical EAE score in relapse, day 26 ([3]; SJL mice, scale 0-5, 10 mg/kg i.p. daily from day 10, mean ± SEM)"
CN1[C@@H]2CC[C@H]1C[C@@H](OC(c1ccccc1)c1ccccc1)C2 [benztropine],two-fold,two-fold,confirmed the presence of multiple markers of mature myelinating oligodendrocytes; also recorded: expression of mature oligodendrocyte markers,no effect,significantly decreased clinical severity in both acute and relapse phase,dramatically decreased the severity of the acute phase of disease and virtually eliminated the observation of a relapse phase; also recorded: decreased the clinical severity of disease,0.2±0.2,12.5,general toxicity was not observed,Dose dependent activity,dose dependent efficacy,inhibited; also recorded: Potent inhibition; also recorded: antagonizes,dose dependent inhibition,–,–
CN1CCN(CCCN2c3ccccc3Sc3ccc(C(F)(F)F)cc32)CC1 [trifluoperazine],two-fold,two-fold,confirmed the presence of multiple markers of mature myelinating oligodendrocytes,–,–,–,–,–,–,–,–,did not inhibit; also recorded: no effect,–,modest decrease,0.4±0.4

# Source: patent publication US11246873B2, “Directed differentiation of oligodendrocyte precursor cells to a myelinating cell fate” (The Scripps Research Institute, priority 2011, dated 2022)
